From patent US12016868B2, “Boronic acid derivatives and therapeutic uses thereof” (Qpex Biopharma, Inc., priority 2018, dated 2024)

Legend:
ECL1002 [1] = test: Aztreonam potentiation assay (MPC@4) and aztreonam MIC; format: cell-based; conditions: strain ECL1002
Protocol: (§1) The potency and spectrum of β-lactamase inhibitors (BLIs) was determined by assessing their aztreonam potentiation activity in a dose titration potentiation assay using strains of various bacteria that are resistant to aztreonam due to expression of various β-lactamases. Aztreonam is a monobactam antibiotic and is hydrolyzed by the majority of β-lactamases that belong to class A or C (but not class B or D). The potentiation effect was observed as the ability of BLI compounds to inhibit growth in the presence of sub-inhibitory concentration of aztreonam. […] Aztreonam was present in the test medium at 4 μg/mL. Compounds were tested at concentrations up to 20 μg/mL. In this assay, potency of compounds was reported as the minimum concentration of BLI required to inhibit growth of bacteria in the presence of 4 μg/mL of aztreonam (MPC@4). Table 1 summarizes the BLI potency of aztreonam potentiation (MPC@4) for various strains overexpressing class A (ESBL and KPC), and class C β-lactamases. Aztreonam MIC for each strain is also shown.

ec302 TEM-10 [2] = test: as above; format: cell-based; conditions: strain ec302 TEM-10
Protocol: as §1

KP1010 SHV-12 [3] = test: as above; format: cell-based; conditions: strain KP1010 SHV-12
Protocol: as §1

KP1005 CTX-M-14 [4] = test: as above; format: cell-based
Protocol: as §1

ec308 SHV-5 [5] = test: as above; format: cell-based; conditions: strain ec308 SHV-5
Protocol: as §1

KP1004 KPC-2 [6] = test: as above; format: cell-based
Protocol: as §1

EC1010 CMY-6 [7] = test: as above; format: cell-based; conditions: strain EC1010 CMY-6
Protocol: as §1

KP1009 CTX-M-15 [8] = test: as above; format: cell-based; conditions: strain KP1009 CTX-M-15
Protocol: as §1

KP1004 KPC-2 [9] = test: Biapenem potentiation assay (MPC@1) and biapenem MIC; format: cell-based; conditions: strain KP1004 KPC-2
Protocol: (§2) β-lactamase inhibitors were also tested for their ability to potentiate the carbapenem biapenem against strains producing class A (KPC), class D (OXA-48), and class B (metallo β-lactamases, NDM-1 and VIM-1) carbapenemases. The potentiation effect was observed as the ability of BLI compounds to inhibit growth in the presence of a sub-inhibitory concentration of biapenem. […] Biapenem was present in the test medium at 1 μg/mL. Compounds were tested at concentrations up to 20 μg/mL. In this assay, potency of compounds was reported as the minimum concentration of BLI required to inhibit growth of bacteria in the presence of 1 μg/mL of biapenem (MPC@1). Table 3 summarizes the BLI potency of biapenem potentiation (MPC@1) for four strains overexpressing class A (KPC), class D (OXA-48), and class B (NDM-1 and VIM-1) carbapenemases. Biapenem MIC for each strain is also shown.

KP1086 OXA-48 = test: as above; format: cell-based; conditions: strain KP1086 OXA-48
Protocol: as §2

KP1081 NDM-1 = test: as above; format: cell-based; conditions: strain KP1081 NDM-1
Protocol: as §2

[10] = system: strains producing class A (KPC), class D (OXA-48), and class B (NDM-1 and VIM-1) carbapenemases; test: Biapenem MIC of the test strains (panel); format: cell-based; conditions: span over all test strains of Table 3
Protocol: as §2

KP1054 VIM-1 = test: Biapenem potentiation assay (MPC@1) and biapenem MIC; format: cell-based; conditions: minimum BLI concentration inhibiting growth with biapenem 1 μg/mL; strain KP1054 VIM-1; tested up to 20 μg/mL
Protocol: as §2

ECL1002 [11] = test: Tigemonam potentiation assay (MPC@4) and tigemonam MIC; format: cell-based; conditions: strain ECL1002
Protocol: (§3) Selected β-lactamase inhibitors were also tested for their ability to potentiate the monobactam tigemonam. […] Tigemonam was present in the test medium at 4 μg/mL. Compounds were tested at concentrations up to 20 μg/mL. In this assay, potency of compounds was reported as the minimum concentration of BLI required to inhibit growth of bacteria in the presence of 4 μg/mL of tigemonam (MPC@4). Table 2 summarizes the BLI potency of tigemonam potentiation (MPC@4) for various strains overexpressing class A (ESBL) and class C β-lactamases.

ec302 TEM-10 [12] = test: as above; format: cell-based; conditions: strain ec302 TEM-10
Protocol: as §3

KP1010 SHV-12 [13] = test: as above; format: cell-based; conditions: strain KP1010 SHV-12
Protocol: as §3

KP1005 CTX-M-14 [14] = test: as above; format: cell-based; conditions: strain KP1005 CTX-M-14
Protocol: as §3

ec308 SHV-5 [15] = test: as above; format: cell-based; conditions: strain ec308 SHV-5
Protocol: as §3

EC1010 CMY-6 [16] = test: as above; format: cell-based; conditions: strain EC1010 CMY-6
Protocol: as §3

KP1009 CTX-M-15 [17] = test: as above; format: cell-based; conditions: strain KP1009 CTX-M-15
Protocol: as §3

AB1053 OXA-72 = test: Meropenem potentiation assay (MPC@8) and meropenem MIC; format: cell-based, Acinetobacter baumannii; conditions: A. baumannii strain AB1053 OXA-72
Protocol: (§4) β-lactamase inhibitors were also tested for their ability to potentiate the carbapenem meropenem against strains of Acinetobacter baumannii producing class D (OXA-23 and OXA-72) carbapenemases. […] Meropenem was present in the test medium at 8 μg/mL. Compounds were tested at concentrations up to 20 μg/mL. In this assay, potency of compounds was reported as the minimum concentration of BLI required to inhibit growth of bacteria in the presence of 8 μg/mL of meropenem (MPC@8).

AB1054 OXA-23 = test: as above; format: cell-based, Acinetobacter baumannii
Protocol: as §4

[18] = minimum BLI concentration inhibiting growth with biapenem 1 μg/mL, tested up to 20 μg/mL
[19] = minimum BLI concentration inhibiting growth with aztreonam 4 μg/mL, tested up to 20 μg/mL
[20] = minimum BLI concentration inhibiting growth with tigemonam 4 μg/mL, tested up to 20 μg/mL

C[C@H]1[C@H](NC(=O)/C(=N\OC(C)(C)C(=O)O)c2csc(N)n2)C(=O)N1S(=O)(=O)O [Aztreonam]
MIC (ECL1002 [1]; aztreonam alone): 64 µg/mL | MIC (ec302 TEM-10 [2]; aztreonam alone): 128 µg/mL | MIC (KP1010 SHV-12 [3]; aztreonam alone): 64 µg/mL | MIC (KP1005 CTX-M-14 [4]; read-out: Aztreonam MIC): > 128 µg/mL | MIC (ec308 SHV-5 [5]; aztreonam alone): > 128 µg/mL | MIC (KP1004 KPC-2 [6]; read-out: Aztreonam MIC): > 128 µg/mL | MIC (EC1010 CMY-6 [7]; aztreonam alone): > 128 µg/mL | MIC (KP1009 CTX-M-15 [8]; aztreonam alone): > 128 µg/mL

C[C@@H](O)[C@H]1C(=O)N2C(C(=O)[O-])=C(SC3Cn4cnc[n+]4C3)[C@H](C)[C@H]12 (stereo partly drawn) [Biapenem]
MIC (KP1004 KPC-2 [9]; biapenem alone): 32 µg/mL | MIC (KP1086 OXA-48; biapenem alone): 16 µg/mL | MIC (KP1081 NDM-1; biapenem alone): 16 µg/mL | MIC [10]: 16 to 32 µg/mL

COc1ccc2c(c1C(=O)O)OB(O)CC2Cn1cc(CO)nn1 (stereo not drawn) [Compound 16, 2-hydroxy-4-[[4-(hydroxymethyl)triazol-1-yl]methyl]-7-methoxy-3,4-dihydro-1,2-benzoxaborinine-8-carboxylic Acid]
BPM MPC1 KP1004 KPC-2 (KP1004 KPC-2 [9]; [18]): X (X = MPC@1 ≤ 5 μg/mL) | BPM MPC1 KP1054 VIM-1 (KP1054 VIM-1): Y (Y = 5 μg/mL < MPC@1 ≤ 20 μg/mL) | BPM MPC1 OXA-48 KP1086 (KP1086 OXA-48; [18]): Y (Y = 5 μg/mL < MPC@1 ≤ 20 μg/mL) | BPM MPC1 KP1081 NDM-1 (KP1081 NDM-1; [18]): Y (Y = 5 μg/mL < MPC@1 ≤ 20 μg/mL) | AZT MPC4 ECL1002 (ECL1002 [1]; [19]): X (X = MPC@4 ≤ 5 μg/mL) | AZT MPC4 TEM-10 ec302 (ec302 TEM-10 [2]; [19]): X (X = MPC@4 ≤ 5 μg/mL) | AZT MPC4 SHV-12 KP1010 (KP1010 SHV-12 [3]; [19]): X (X = MPC@4 ≤ 5 μg/mL) | AZT MPC4 CTX-M-14 KP1005 (KP1005 CTX-M-14 [4]; minimum BLI concentration inhibiting growth with aztreonam 4 μg/mL, strain KP1005 CTX-M-14, tested up to 20 μg/mL): X (X = MPC@4 ≤ 5 μg/mL) | AZT MPC4 SHV-5 ec308 (ec308 SHV-5 [5]; [19]): X (X = MPC@4 ≤ 5 μg/mL) | AZT MPC4 KPC-2 KP1004 (KP1004 KPC-2 [6]; minimum BLI concentration inhibiting growth with aztreonam 4 μg/mL, strain KP1004 KPC-2, tested up to 20 μg/mL): X (X = MPC@4 ≤ 5 μg/mL) | AZT MPC4 CMY-6 EC1010 (EC1010 CMY-6 [7]; [19]): X (X = MPC@4 ≤ 5 μg/mL) | AZT MPC4 CTX-M-15 KP1009 (KP1009 CTX-M-15 [8]; [19]): X (X = MPC@4 ≤ 5 μg/mL) | TIG MPC4 ECL1002 (ECL1002 [11]; [20]): X (X = MPC@4 ≤ 5 μg/mL) | TIG MPC4 TEM-10 ec302 (ec302 TEM-10 [12]; [20]): Y (Y = 5 μg/mL < MPC@4 ≤ 20 μg/mL) | TIG MPC4 SHV-12 KP1010 (KP1010 SHV-12 [13]; [20]): X (X = MPC@4 ≤ 5 μg/mL) | TIG MPC4 CTX-M-14 KP1005 (KP1005 CTX-M-14 [14]; [20]): Y (Y = 5 μg/mL < MPC@4 ≤ 20 μg/mL) | TIG MPC4 SHV-5 ec308 (ec308 SHV-5 [15]; [20]): X (X = MPC@4 ≤ 5 μg/mL) | TIG MPC4 CMY-6 EC1010 (EC1010 CMY-6 [16]; [20]): X (X = MPC@4 ≤ 5 μg/mL) | TIG MPC4 CTX-M-15 KP1009 (KP1009 CTX-M-15 [17]; [20]): X (X = MPC@4 ≤ 5 μg/mL) | MPM MPC8 AB1053 OXA-72 (AB1053 OXA-72; minimum BLI concentration inhibiting growth with meropenem 8 μg/mL, tested up to 20 μg/mL): X (X = MPC@1 ≤ 5 μg/mL) | MPM MPC8 AB1054 OXA-23 (AB1054 OXA-23; minimum BLI concentration inhibiting growth with meropenem 8 μg/mL, A. baumannii strain AB1054 OXA-23, tested up to 20 μg/mL): Y (Y = 5 μg/mL < MPC@1 ≤ 20 μg/mL)

CC1(C)[C@H](NC(=O)/C(=N\OCC(=O)O)c2csc(N)n2)C(=O)N1OS(=O)(=O)O [Tigemonam]
Tigemonam MIC (ECL1002 [11]; tigemonam alone): 32 µg/mL | Tigemonam MIC (ec302 TEM-10 [12]; tigemonam alone): >64 µg/mL | Tigemonam MIC (KP1010 SHV-12 [13]; tigemonam alone): >64 µg/mL | Tigemonam MIC (KP1005 CTX-M-14 [14]; tigemonam alone): >64 µg/mL | Tigemonam MIC (ec308 SHV-5 [15]; tigemonam alone): >64 µg/mL | Tigemonam MIC (EC1010 CMY-6 [16]; tigemonam alone): 16 µg/mL | Tigemonam MIC (KP1009 CTX-M-15 [17]; tigemonam alone): >64 µg/mL

C[C@@H](O)[C@H]1C(=O)N2C(C(=O)O)=C(S[C@@H]3CN[C@H](C(=O)N(C)C)C3)[C@H](C)[C@H]12 [Meropenem]
MIC (AB1053 OXA-72; Acinetobacter baumannii, meropenem alone): > 64 µg/mL | MIC (AB1054 OXA-23; Acinetobacter baumannii, read-out: Meropenem MIC): 32 µg/mL
